In EP0799188B1, “AMIDES OF MONO AND DICARBOXYLIC ACIDS WITH GLYCOSAMINES, SELECTIVELY ACTIVE ON THE CANNABINOID PERIPHERAL RECEPTOR” (LIFEGROUP S.p.A., priority 1994, dated 1996):
Like-named read-outs stand apart in the source and are kept apart here.

How the values were obtained:
CB2 receptor [1] = target: T1, CB2 receptor (Rattus norvegicus, UniProt Q9QZN9); assay: saturation curve of 3H-WIN 55,212-2 binding to RBL-2H3 cell membranes; conditions: 3H-WIN 55,212-2 0.5 to 20 nM, 30 µg membrane proteins, 30°C 60 min
T1 construct: 30 µg membrane proteins prepared in item a); endogenous in cells; host or cells: RBL-2H3 cells (plasma membrane preparation)
T1 sequence (Q9QZN9 1-360): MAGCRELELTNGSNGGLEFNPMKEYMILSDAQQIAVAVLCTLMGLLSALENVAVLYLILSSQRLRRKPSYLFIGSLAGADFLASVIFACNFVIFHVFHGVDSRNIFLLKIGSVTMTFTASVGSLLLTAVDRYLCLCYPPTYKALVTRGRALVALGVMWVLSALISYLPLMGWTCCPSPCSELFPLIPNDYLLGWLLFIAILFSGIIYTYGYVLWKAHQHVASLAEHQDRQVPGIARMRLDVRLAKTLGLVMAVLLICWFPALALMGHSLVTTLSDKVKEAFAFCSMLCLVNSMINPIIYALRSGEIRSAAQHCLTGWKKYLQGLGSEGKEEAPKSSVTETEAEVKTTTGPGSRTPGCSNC

RBL-2H3 cells = assay: 3H-serotonin release induced by ADNP/DNP.HSA immunogenic stimulation; assay type: cell-based, rat; conditions: for effect on serotonin release (RBL cells immunogenic activation): statement in words on Table 3
CB2 receptor [2] = target: T1, CB2 receptor; assay: 3H-WIN 55,212-2 binding displacement on RBL-2H3 cell membranes; conditions: competitor 10 µM; amides in 0.1% DMSO, Anandamide and Nabilone in 0.1% ethanol
[3] = system: cerebellar granule cell culture; assay: neuroprotective effect against glutamate-induced cell death (MTT); assay type: cell-based, mouse
CB2 receptor [4] = target: CB2 receptor (Homo sapiens, UniProt P34972); conditions: CB2 versus CB1 central receptor; cited from earlier work
Sequence of CB2 receptor (Homo sapiens, UniProt P34972) (P34972 whole entry): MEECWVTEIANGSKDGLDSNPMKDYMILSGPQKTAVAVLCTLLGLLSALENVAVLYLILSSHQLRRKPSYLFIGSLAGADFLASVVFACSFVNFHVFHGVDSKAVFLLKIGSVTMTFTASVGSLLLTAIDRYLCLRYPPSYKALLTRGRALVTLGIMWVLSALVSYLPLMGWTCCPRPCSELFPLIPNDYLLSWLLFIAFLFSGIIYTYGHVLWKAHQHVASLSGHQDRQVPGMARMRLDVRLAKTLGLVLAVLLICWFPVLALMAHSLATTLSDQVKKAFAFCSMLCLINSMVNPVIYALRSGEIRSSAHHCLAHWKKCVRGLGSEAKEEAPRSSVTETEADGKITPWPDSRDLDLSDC

SMILES | Bmax (CB2 receptor [1]) [pM] | 3H-serotonin net release inhibition (%) (RBL-2H3 cells; 30µM, + anandamide (12.5 µM)) | 3H-serotonin net release inhibition (%) (RBL-2H3 cells; 30µM, -anandamide) | 3H-serotonin net release (%) (RBL-2H3 cells; 50µM, 0.1% DMSO and 0.1% ethanol) | 3H-serotonin net release inhibition (%) (RBL-2H3 cells; WIN 55,212-2 30 µm, + 12.5µM anandamide) | 3H-serotonin net release inhibition (%) (RBL-2H3 cells; WIN 55,212-2 30 µm, + 12.5µM arachidonic acid) | 3H-serotonin net release inhibition (%) (RBL-2H3 cells; WIN 55,212-2 30 µm, + 12.5µM ethanolamide + 12.5µM arachidonic acid) | 3H-serotonin net release inhibition (%) (RBL-2H3 cells; WIN 55,212-2 30 µm, + 12.5µM ethanolamine) | 3H-serotonin net release inhibition (%) (RBL-2H3 cells; WIN 55,212-2 30 µm, DNP.HSA alone) | EC50 (RBL-2H3 cells; inhibition of 3H-serotonin release, +anandamide (12.5 µM), read-out: ED50 (the source's name)) [µM] | EC50 (RBL-2H3 cells; inhibition of 3H-serotonin release, -anandamide, read-out: ED50 (the source's name)) [µM] | EC50 (RBL-2H3 cells; inhibition of serotonin release, 0.1% DMSO and 0.1% ethanol, read-out: ED50 (µm)) [µM] | effect on serotonin release (RBL cells immunogenic activation) (RBL-2H3 cells) | Displacement (%) (CB2 receptor [2]) | Specific binding (CB2 receptor [2]) | inhibition at 12.5 µM (RBL-2H3 cells; Rattus norvegicus, RBL-2H3, read-out: 3H-serotonin net release inhibition (%), 12.5µM, -WIN) [%] | 3H-serotonin net release (%) (RBL-2H3 cells; concentration not given, 0.1% DMSO and 0.1% ethanol) | EC50 ([3]; glutamate 500 µM for 5 minutes, compound added for 10 minutes, 15 minutes after removing glutamate, MTT after 24 hours, means ± SEM) | protective effect against cell death induced by glutamate ([3]; glutamate 500 µM, anandamide up to 100 µM) | affinity to the CB2 receptor, folds inferior to that of the central receptor (CB2 receptor [4]) [folds]
Cc1c(C(=O)c2cccc3ccccc23)c2cccc3c2n1[C@H](CN1CCOCC1)CO3 [WIN 55,212-2, reference compound] | 100 to 250 | 36 | 100 | 0 | 15 | 59 | 61 | 72 | 69 | 40 | 6.4 | 6.4 | able to inhibit, in a concentration-dependent way |  |  |  |  |  |  | 
CCCCC/C=C\C/C=C\C/C=C\C/C=C\CCCC(=O)NCCO [Anandamide, arachidonylethanolamide, reference compound] |  |  |  |  |  |  |  |  |  |  |  |  | unable to affect serotonin release | 95 | 99 | 7 | 100 | no effect (3) | not effective | 30
